# Measured values: PMC9697799, “(E)-N-(3-(1-(2-(4-(2,2,2-Trifluoroacetamido)benzoyl)hydrazono)ethyl)phenyl)nicotinamide: A Novel Pyridine Derivative for Inhibiting Vascular Endothelial Growth Factor Receptor-2: Synthesis, Computational, and Anticancer Studies” (Molecules, 2022)
# Molecular target: T1, VEGFR-2 (Homo sapiens, UniProt P35968)
# T1 construct: gene KDR
# Experiment: in vitro VEGFR-2 inhibition, Human VEGFR-2 ELISA kit
# Assay type: biochemical
# T1 sequence (P35968 20-1356): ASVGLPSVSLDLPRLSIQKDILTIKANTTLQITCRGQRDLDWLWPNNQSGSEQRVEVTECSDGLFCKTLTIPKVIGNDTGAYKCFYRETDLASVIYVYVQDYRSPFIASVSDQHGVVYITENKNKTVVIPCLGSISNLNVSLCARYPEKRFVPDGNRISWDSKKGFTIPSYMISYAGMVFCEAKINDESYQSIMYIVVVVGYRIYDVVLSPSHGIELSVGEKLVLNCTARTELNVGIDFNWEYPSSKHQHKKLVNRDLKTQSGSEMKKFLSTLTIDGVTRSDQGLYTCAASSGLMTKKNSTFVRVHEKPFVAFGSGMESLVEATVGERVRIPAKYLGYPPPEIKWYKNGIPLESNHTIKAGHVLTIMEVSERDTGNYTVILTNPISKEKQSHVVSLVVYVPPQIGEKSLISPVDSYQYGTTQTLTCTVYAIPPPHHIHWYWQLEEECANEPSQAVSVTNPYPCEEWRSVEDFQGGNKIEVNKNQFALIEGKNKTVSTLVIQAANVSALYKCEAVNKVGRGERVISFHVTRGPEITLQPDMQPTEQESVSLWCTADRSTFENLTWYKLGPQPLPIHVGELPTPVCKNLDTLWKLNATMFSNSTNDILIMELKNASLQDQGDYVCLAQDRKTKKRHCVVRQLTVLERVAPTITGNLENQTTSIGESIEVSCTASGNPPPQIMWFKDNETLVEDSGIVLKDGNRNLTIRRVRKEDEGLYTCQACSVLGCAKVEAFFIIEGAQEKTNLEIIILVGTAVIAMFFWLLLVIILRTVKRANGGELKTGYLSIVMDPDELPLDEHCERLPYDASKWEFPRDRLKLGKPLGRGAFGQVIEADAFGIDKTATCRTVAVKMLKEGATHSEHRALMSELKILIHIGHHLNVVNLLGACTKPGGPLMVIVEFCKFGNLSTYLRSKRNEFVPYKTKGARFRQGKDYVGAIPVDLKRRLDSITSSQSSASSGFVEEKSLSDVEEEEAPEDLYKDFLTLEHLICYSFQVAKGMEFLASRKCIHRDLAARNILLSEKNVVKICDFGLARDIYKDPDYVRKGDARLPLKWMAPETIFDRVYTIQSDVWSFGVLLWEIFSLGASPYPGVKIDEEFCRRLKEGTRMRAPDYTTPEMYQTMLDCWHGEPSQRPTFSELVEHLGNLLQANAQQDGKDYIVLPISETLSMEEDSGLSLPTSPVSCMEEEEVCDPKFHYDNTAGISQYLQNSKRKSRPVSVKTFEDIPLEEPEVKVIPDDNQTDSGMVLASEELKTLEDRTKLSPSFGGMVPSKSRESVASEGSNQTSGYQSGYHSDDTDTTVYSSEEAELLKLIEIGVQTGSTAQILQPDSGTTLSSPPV
smiles,measurement,value
"C/C(=N\NC(=O)c1ccc(NC(=O)C(F)(F)F)cc1)c1cccc(NC(=O)c2cccnc2)c1 [compound 10, (E)-N-(3-(1-(2-(4-(2,2,2-Trifluoroacetamido)benzoyl)hydrazono)ethyl)phenyl)nicotinamide]",IC50,65.8 nM
